US20230011869A1 (Hoffmann-La Roche Inc., priority 2018, published 2023)
Counter-ions that a name gives are not always drawn.

Test system: Acinetobacter baumannii ATCC17978
Experiment: Antimicrobial susceptibility testing: 90% growth inhibitory concentration (IC90) determination, Iso-Sensitest broth
Assay type: cell-based
Conditions: 90% growth inhibitory concentration, Acinetobacter baumannii ATCC17978, Iso-Sensitest broth, OD 600 nm over 16 h; read-out: ATCC17978 IC90
Method in brief: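 A. baumannii ATCC17978 grown in Iso-Sensitest broth across 10 compound concentrations at 35±2 °C.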

| Compound | IC90 [nM] |
| --- | --- |
| COc1ccc(-c2cnc3c(Nc4ccc(C(=O)N5CCN(C(=O)N6CCO[C@@H](CN)C6)CC5)c(C)c4)nccn23)c(Cl)c1F [Example 484, [4-[(2S)-2-(aminomethyl)morpholine-4-carbonyl]piperazin-1-yl]-[4-[[3-(2-chloro-3-fluoro-4-methoxyphenyl)imidazo[1,2-a]pyrazin-8-yl]amino]-2-methylphenyl]methanone; for-mic acid] | 180 |
| COc1ccc(-c2cnc3c(Nc4ccc(C(=O)N5CCN(C(=O)C6CCNCC6)CC5)c(C)c4)nccn23)c(F)c1F [Example 485, [4-[[3-(2,3-difluoro-4-methoxyphenyl)imidazo[1,2-a]pyrazin-8-yl]amino]-2-methylphenyl]-[4-(piperidine-4-carbonyl)piperazin-1-yl]methanone; hydrochloride] | 190 |
| Cc1cc(Nc2nccn3c(-c4ccc(OCC#N)c(F)c4F)cnc23)ccc1C(=O)N1CCC(C(=O)N2CCNC[C@H]2CO)CC1 [Example 492, 2-[2,3-difluoro-4-[8-[4-[4-[(2S)-2-(hydroxymethyl)piperazine-1-carbonyl]piperidine-1-carbonyl]-3-methylanilino]imidazo[1,2-a]pyrazin-3-yl]phenoxy]acetonitrile; for-mic acid] | 310 |
| Cc1cc(Nc2nccn3c(-c4ccc(OCC#N)c(F)c4F)cnc23)ccc1C(=O)N1CCC(C(=O)N2CCNC[C@@H]2CO)CC1 [Example 497, 2-[2,3-difluoro-4-[8-[4-[4-[(2R)-2-(hydroxymethyl)piperazine-1-carbonyl]piperidine-1-carbonyl]-3-methylanilino]imidazo[1,2-a]pyrazin-3-yl]phenoxy]acetonitrile; for-mic acid] | 330 |

Same assay, conditions: Acinetobacter baumannii, ATCC17978, 16 h, read-out: ATCC17978 IC90, 90% growth inhibitory concentration, Acinetobacter baumannii ATCC17978, Iso-Sensitest broth, OD 600 nm over 16 h

| Compound | IC90 [nM] |
| --- | --- |
| COc1ccc(-c2cnc3c(Nc4ccc(C(=O)N5CCN(C(=O)[C@@H]6CCNC6)CC5)c(C)c4)nccn23)cc1F [Example 483, [4-[[3-(3-fluoro-4-methoxyphenyl)imidazo[1,2-a]pyrazin-8-yl]amino]-2-methylphenyl]-[4-[(3R)-pyrrolidine-3-carbonyl]piperazin-1-yl]methanone; hydrochloride] | 180 |
| Cc1cc(Nc2nccn3c(-c4ccc(OC(F)F)cc4)cnc23)ccc1C(=O)N1CCN(C(=O)[C@@H]2CCNC2)CC1 [Example 486, [4-[[3-[4-(difluoromethoxy)phenyl]imi-dazo[1,2-a]pyrazin-8-yl]amino]-2-methylphenyl]-[4-[(3R)-pyrrolidine-3-carbonyl]piperazin-1-yl]methanone; hydrochloride] | 190 |
| Cc1cc(Nc2nccn3c(-c4ccc(OC(F)F)cc4)cnc23)ccc1C(=O)N1CCN(C(=O)C2C3CCC2CNC3)CC1 (stereo not drawn) [Example 488, [4-(3-azabicyclo[3.2.1]octane-8-carbonyl)piperazin-1-yl]-[4-[[3-[4-(difluoromethoxy)phenyl]imi-dazo[1,2-a]pyrazin-8-yl]amino]-2-methylphenyl]methanone; hy-drochloride] | 240 |
| Cc1cc(Nc2nccn3c(-c4ccc(OC(F)F)cc4)cnc23)ccc1C(=O)N1CCN(C(=O)C2(O)CCNCC2)CC1 [Example 490, [4-[[3-[4-(difluoromethoxy)phenyl]imi-dazo[1,2-a]pyrazin-8-yl]amino]-2-methylphenyl]-[4-(4-hydroxypiperidine-4-carbonyl)piperazin-1-yl]methanone; hydrochloride] | 280 |
| Cc1cc(Nc2nccn3c(-c4ccc(OC(F)F)cc4)cnc23)ccc1C(=O)N1CCN(C(=O)N[C@@H](C)CN)CC1 [Example 491, N-[(2S)-1-aminopropan-2-yl]-4-[4-[[3-[4-(difluoromethoxy)phenyl]imi-dazo[1,2-a]pyrazin-8-yl]amino]-2-methylbenzoyl]piperazine-1-carboxamide] | 300 |
| Cc1cc(Nc2nccn3c(-c4ccc(OC(F)F)cc4)cnc23)ccc1C(=O)N1CCN(C(=O)NCC2(O)CNC2)CC1 [Example 493, 4-[4-[[3-[4-(difluoromethoxy)phenyl]imi-dazo[1,2-a]pyrazin-8-yl]amino]-2-methylbenzoyl]-N-[(3-hydroxyazetidin-3-yl)methyl]piperazine-1-carboxamide; formic acid] | 310 |
| CCc1cc(Nc2nccn3c(-c4ccc(OC)c(F)c4F)cnc23)ccc1C(=O)N1CCN(C(=O)C2CCNCC2)CC1 [Example 494, [4-[[3-(2,3-difluoro-4-methoxyphenyl)imidazo[1,2-a]pyrazin-8-yl]amino]-2-ethylphenyl]-[4-(piperidine-4-carbonyl)piperazin-1-yl]methanone; hydrochloride] | 320 |
| Cc1cc(Nc2nccn3c(-c4ccc(OC(F)F)cc4)cnc23)ccc1C(=O)N1CCN(C(=O)[C@H]2CCNC2)CC1 [Example 495, [4-[[3-[4-(difluoromethoxy)phenyl]imi-dazo[1,2-a]pyrazin-8-yl]amino]-2-methylphenyl]-[4-[(3S)-pyrrolidine-3-carbonyl]piperazin-1-yl]methanone; hydrochloride] | 320 |
| Cc1cc(Nc2nccn3c(-c4ccc(OC(F)F)cc4)cnc23)ccc1C(=O)N1CCN(C(=O)N2CCO[C@H](CN)C2)CC1 [Example 496, [4-[(2R)-2-(aminomethyl)morpholine-4-carbonyl]piperazin-1-yl]-[4-[[3-[4-(difluoromethoxy)phenyl]imi-dazo[1,2-a]pyrazin-8-yl]amino]-2-methylphenyl]methanone; for-mic acid] | 330 |
| Cc1cc(Nc2nccn3c(-c4ccc(OCC#N)c(F)c4F)cnc23)ccc1C(=O)N1CCC(C(=O)OC[C@H]2CNCCN2)CC1 [Example 499, formic acid; [(2R)-piperazin-2-yl]methyl 1-[4-[[3-[4-(cyanomethoxy)-2,3-difluorophenyl]imidazo[1,2-a]pyrazin-8-yl]amino]-2-methylbenzoyl]piperidine-4-carboxylate] | 360 |
| Cc1cc(Nc2nccn3c(-c4ccc(OC(F)F)cc4)cnc23)ccc1C(=O)N1CCN(C(=O)N2CCNC(CN)C2)CC1 (stereo not drawn) [Example 500, [4-[3-(aminomethyl)piperazine-1-carbonyl]piperazin-1-yl]-[4-[[3-[4-(difluoromethoxy)phenyl]imi-dazo[1,2-a]pyrazin-8-yl]amino]-2-methylphenyl]methanone; for-mic acid] | 390 |
| Cc1cc(Nc2nccn3c(-c4ccc(OC(F)F)cc4)cnc23)ccc1C(=O)N1CCN(C(=O)C2C=CNCC2)CC1 (stereo not drawn) [Example 501, [4-[[3-[4-(difluoromethoxy)phenyl]imi-dazo[1,2-a]pyrazin-8-yl]amino]-2-methylphenyl]-[4-(1,2,3,4-tetrahydropyridine-4-carbonyl)piperazin-1-yl]methanone; hydrochloride] | 410 |
| Cc1cc(Nc2nccn3c(-c4ccc(OC(F)F)cc4)cnc23)ccc1C(=O)N1CCN(C(=O)C2CCNCC2F)CC1 (stereo not drawn) [Example 502, [4-[[3-[4-(difluoromethoxy)phenyl]imi-dazo[1,2-a]pyrazin-8-yl]amino]-2-methylphenyl]-[4-(3-fluoropiperidine-4-carbonyl)piperazin-1-yl]methanone; hydrochloride] | 470 |

Same assay, conditions: read-out: ATCC17978 IC90; 90% growth inhibitory concentration, Acinetobacter baumannii ATCC17978, Iso-Sensitest broth, OD 600 nm over 16 h; hydrochloride

| Compound | IC90 [nM] |
| --- | --- |
| Cc1cc(Nc2nccn3c(-c4ccc(OC(F)F)cc4)cnc23)ccc1C(=O)N1CCN(C(=O)C2(F)CCNCC2)CC1 [Example 487, [4-[[3-[4-(difluoromethoxy)phenyl]imi-dazo[1,2-a]pyrazin-8-yl]amino]-2-methylphenyl]-[4-(4-fluoropiperidine-4-carbonyl)piperazin-1-yl]methanone; hydrochloride] | 220 |
